The record followed here is patent publication US20260234164A1, “BIPHENYL COMPOUND AS IMMUNOMODULATOR, PREPARATION METHOD THEREFOR AND USE THEREOF” (SHENZHEN CHIPSCREEN BIOSCIENCES CO., LTD., priority 2021, published 2026).

Structures are written as SMILES.

The subject of the assay is PD-1/PD-L1-mediated T cell activation inhibitory signal. The experiment in a line: CHO-PD-L1-CD3L / Jurkat-PD-1-NFAT co-culture luciferase reporter assay. In kind it is cell-based. To be noted: Homo sapiens, co-culture 6 h, read-out: EC50 blocking PD-1/PD-L1-mediated T cell activation inhibitory signal. Here is the method: In order to detect the effect of the interaction between PD-1 and PD-L1 on T cell activation signals in the immune response, CHO-PD-L1-CD3L cells stably expressing human PD-L1 molecules and anti-CD3 single-chain antibody (ScFv) and Jurkat-PD-1-NFAT cells stably expressing human PD-1 molecule and NFAT reporter gene were constructed. When the two kinds of cells were co-incubated, the binding of anti-CD3ScFv on the surface of CHO cells and the membrane CD3 molecules of Jurkat cells would transmit an activation signal to Jurkat cells, but simultaneously, the binding of PD-L1 on the surface of CHO cells and PD-1 molecules on the surface of Jurkat cells would transmit an inhibitory signal inward to prevent expression of the luciferase reporter gene. When immune checkpoint antibodies or small molecule inhibitors were added, the binding of PD-1 and PD-L1 was blocked, the NFAT pathway activated by T cell activation signal mediated by cross-linking of CD3ScFv antibody and CD3 was no longer affected by the inhibitory signal, and the downstream luciferase reporter gene started to be expressed. A chemiluminescent signal proportional to reporter gene activation was detected by adding a catalytic substrate.
CHO-PD-L1-CD3L cells expressing human PD-L1 molecule and anti-CD3 single-chain antibody (ScFv) and Jurkat-PD-1-NFAT cells stably expressing human PD-1 molecule and NFAT reporter gene were independently constructed and provided by Dr. Chen Bo (KeyMed Bioscience (Chengdu) Co., Ltd.). Puromycin (Cat #540411) and Hygromycin B (Cat #V900372) for stable culture of transfected cells were purchased from Sigma, PMA (Cat #P1585) was purchased from Sigma, anti-human PD-L1 antibody (Cat #GMP-A066) was purchased from Novoprotein Company. Luciferase substrate solution (Cat #E6485) and luciferase-specific cell lysis solution 5× (Cat #E1531) were purchased from Promega. Fluorescence detection instrument Tecan (Spark 10M) was purchased from Switzerland Tecan Company.
(1) The day before the experiment, 100 μL of CHO-PD-L1-CD3L cells were inoculated in each well of a 96-well cell culture plate (about 4×10^4 cells/well) with a medium of DMEM/F12 containing 10% FBS, 8 μg/mL puromycin and 200 μg/mL hygromycin B, and cultured overnight at 37° C.
(2) The test compounds were diluted with 0.1% PBST into different concentration gradients, added into 96-well plates, and pre-incubated for 30 min. Jurkat-PD-1-NFAT cell count was adjusted to 2×10^5 cells/mL with the RPMI 1640 complete medium containing 10% FBS, […]8 μg/mL puromycin and 200 μg/mL hygromycin B. 100 ng/mL PMA (the stock solution was prepared with DMSO to a concentration of 10 mg/mL) was added to amplify T cell activation signal. 100 μL of the above Jurkat-PD-1-NFAT cells was added to each well of the 96-well plate for co-culture.
(3) When detecting the reaction, a control group was provided, including a solvent control without adding test compounds and a positive control with addition of anti-human PD-1 antibody as the experimental system. All detections were performed with duplicates.
(4) After continuous incubation at 37° C. for 6 h, 40 μL of 5× cell lysate was directly added, and mixed well. The plate was placed at room temperature for 10 min to completely lyse the cells. 50 μL of the lysed cell solution was transferred to a fluorescence detection plate, and added with 30 μL of luciferase substrate solution. The chemiluminescence detection program on the fluorescence detector was immediately selected for detection.
(5) The inhibition rate of T cell activation signal at the cellular level of the test compounds was calculated as follows: Inhibition rate of T cell activation signal (%)=(the original value of chemiluminescence in the detection well−solvent control)/(the highest original value of chemiluminescence detected in the compound detection well−solvent control)×100%. […]
In general terms: In a reporter assay the amount or activity of a reporter protein is the signal.
For the compound `[2H]C([2H])([2H])OCC12CCC(CCN3CCc4c(nc(C(=O)Nc5cccc(-c6cccc(NC(=O)c7nc8c(n7C)CCN(CCC79CCC(C(=O)O)(CC7)C9)C8)c6Cl)c5F)n4C)C3)(CC1)C2` (single isomer, unassigned) [Compound I-2, 4-(2-(2-((2-chloro-2′-fluoro-3′-(5-(2-(4-((methoxy-d3)methyl)bicyclo[2.2.1]heptane-1-y 1)ethyl)-1-methyl-4,5,6,7-tetrahydro-1H-imidazo[4,5-c]pyridine-2-carboxamido)-[1,1′-biphenyl]-3-yl)carbamoyl)-1-methyl-1,4,6,7-tetrahydro-5H-imidazo[4,5-c]pyridin-5-yl)ethyl)bicyclo[2.2.1]heptane-1-carboxylic acid], the EC50 was 19.8 nM.

With `[2H]C([2H])([2H])OCC12CCC(CCN3CCc4c(nc(C(=O)Nc5cccc(-c6cccc(NC(=O)c7nc8c(n7C([2H])([2H])[2H])CCN(CCC79CCC(C(=O)O)(CC7)C9)C8)c6Cl)c5F)n4C([2H])([2H])[2H])C3)(CC1)C2` (single isomer, unassigned) [Compound I-7, 4-(2-(2-((2-chloro-2′-fluoro-3′-(5-(2-(4-((methoxy-d3)methyl)bicyclo[2.2.1]heptane-1-yl)ethyl)-1-(methyl-d3)-4,5,6,7-tetrahydro-1H-imidazo[4,5-c]pyridine-2-carboxamido)-[1,1′-biphenyl]-3-yl)carbamoyl)-1-(methyl-d3)-1,4,6,7-tetrahydro-5H-imidazo[4,5-c]pyridin-5-yl)ethyl)bicyclo[2.2.1]heptane-1-carboxylic acid], the EC50 was 19.6 nM.

`[2H]C([2H])([2H])n1c(C(=O)Nc2cccc(-c3cccc(NC(=O)c4nc5c(n4C([2H])([2H])[2H])CCN(CCC46CCC(C(=O)O)(CC4)C6)C5)c3Cl)c2F)nc2c1CCN(CCC13CCC(COC)(CC1)C3)C2` (single isomer, unassigned) [Compound I-8, 4-(2-(2-((2-chloro-2′-fluoro-3′-(5-(2-(4-(methoxymethyl)bicyclo[2.2.1]heptane-1-yl)ethyl)-1-(methyl-d3)-4,5,6,7-tetrahydro-1H-imidazo[4,5-c]pyridine-2-carboxamido)-[1,1′-biphenyl]-3-yl)carbamoyl)-1-(methyl-d3)-1,4,6,7-tetrahydro-5H-imidazo[4,5-c]pyridin-5-yl)ethyl)bicyclo[2.2.1]heptane-1-carboxylic acid]: the EC50 is 45.1 nM.

Take `[2H]c1c([2H])c(NC(=O)c2nc3c(n2C)CCN(CCC24CCC(COC([2H])([2H])[2H])(CC2)C4)C3)c(F)c(-c2c([2H])c([2H])c([2H])c(NC(=O)c3nc4c(n3C)CCN(CCC35CCC(C(=O)O)(CC3)C5)C4)c2Cl)c1[2H]` (single isomer, unassigned) [Compound I-14, 4-(2-(2-((2-chloro-2′-fluoro-3′-(5-(2-(4-((methoxy-d3)methyl)bicyclo[2.2.1]heptane-1-y 1)ethyl)-1-methyl-4,5,6,7-tetrahydro-1H-imidazo[4,5-c]pyridine-2-carboxamido)-[1,1′-biphenyl]-3-yl-4,4′,5,5′,6,6′-d6)carbamoyl)-1-methyl-1,4,6,7-tetrahydro-5H-imidazo[4,5-c]pyridin-5-yl)ethyl)bicyclo[2.2.1]heptane-1-carboxylic acid]: the EC50 was found to be 15.1 nM.

With `[2H]C([2H])([2H])OCC12CCC(CCN3CCc4c(nc(C(=O)Nc5cccc(-c6cccc(NC(=O)c7nc8c(n7C)CCN(CCC79CCC(C(=O)O)(CC7)C9)C8)c6C)c5Cl)n4C)C3)(CC1)C2` [Compound I-3, 4-(2-(2-((2′-chloro-3′-(5-(2-(4-((methoxy-d3)methyl)bicyclo[2.2.1]heptane-1-yl)ethyl)-1-methyl-4,5,6,7-tetrahydro-1H-imidazo[4,5-c]pyridine-2-carboxamido)-2-methyl-[1,1′-biphenyl]-3-yl)carbamoyl)-1-methyl-1,4,6,7-tetrahydro-5H-imidazo[4,5-c]pyridin-5-yl)ethyl)bicyclo[2.2.1]heptane-1-carboxylic acid], the EC50 amounted to 10.6 nM.

On to `[2H]C([2H])([2H])OCC12CCC(CCN3CCc4c(nc(C(=O)Nc5cccc(-c6cccc(NC(=O)c7nc8c(n7C)CCN(CCC79CCC(C(=O)O)(CC7)C9)C8)c6Cl)c5C)n4C)C3)(CC1)C2` [Compound I-4, 4-(2-(2-((2-chloro-3′-(5-(2-(4-((methoxy-d3)methyl)bicyclo[2.2.1]heptane-1-yl)ethyl)-1-methyl-4,5,6,7-tetrahydro-1H-imidazo[4,5-c]pyridine-2-carboxamido)-2′-methyl-[1,1′-biphenyl]-3-yl)carbamoyl)-1-methyl-1,4,6,7-tetrahydro-5H-imidazo[4,5-c]pyridin-5-yl)ethyl)bicyclo[2.2.1]heptane-1-carboxylic acid], for which the EC50 turned out to be 9.72 nM.

For `[2H]C([2H])([2H])OCC12CCC(CCN3CCc4c(nc(C(=O)Nc5cccc(-c6cccc(NC(=O)c7nc8c(n7C([2H])([2H])[2H])CCN(CCC79CCC(C(=O)O)(CC7)C9)C8)c6Cl)c5Cl)n4C([2H])([2H])[2H])C3)(CC1)C2` [Compound I-5, 4-(2-(2-((2,2′-dichloro-3′-(5-(2-(4-((methoxy-d3)methyl)bicyclo[2.2.1]heptane-1-yl)ethyl)-1-(methyl-d3)-4,5,6,7-tetrahydro-1H-imidazo[4,5-c]pyridine-2-carboxamido)-[1,1′-biphenyl]-3-yl)carbamoyl)-1-(methyl-d3)-1,4,6,7-tetrahydro-5H-imidazo[4,5-c]pyridin-5-yl)ethyl)bicyclo[2.2.1]heptane-1-carboxylic acid], the EC50 was found to be 12.5 nM.

For `[2H]C([2H])([2H])n1c(C(=O)Nc2cccc(-c3cccc(NC(=O)c4nc5c(n4C([2H])([2H])[2H])CCN(CCC46CCC(C(=O)O)(CC4)C6)C5)c3Cl)c2Cl)nc2c1CCN(CCC13CCC(COC)(CC1)C3)C2` [Compound I-6, 4-(2-(2-((2,2′-dichloro-3′-(5-(2-(4-((methoxy)methyl)bicyclo[2.2.1]heptane-1-yl)ethyl)-1-(methyl-d3)-4,5,6,7-tetrahydro-1H-imidazo[4,5-c]pyridine-2-carboxamido)-[1,1′-biphenyl]-3-yl)carbamoyl)-1-(methyl-d3)-1,4,6,7-tetrahydro-5H-imidazo[4,5-c]pyridin-5-yl)ethyl)bicyclo[2.2.1]heptane-1-carboxylic acid], the EC50 stood at 12.5 nM.

As to `[2H]C([2H])([2H])OCC12CCC(CCN3CCc4c(nc(C(=O)Nc5cccc(-c6cccc(NC(=O)c7nc8c(n7C([2H])([2H])[2H])CCN(CCC79CCC(C(=O)O)(CC7)C9)C8)c6Cl)c5C)n4C([2H])([2H])[2H])C3)(CC1)C2` [Compound I-9, 4-(2-(2-((2-chloro-3′-(5-(2-(4-((methoxy-d3)methyl)bicyclo[2.2.1]heptane-1-yl)ethyl)-1-(methyl-d3)-4,5,6,7-tetrahydro-1H-imidazo[4,5-c]pyridine-2-carboxamido)-2′-methyl-[1,1′-biphenyl]-3-yl)carbamoyl)-1-(methyl-d3)-1,4,6,7-tetrahydro-5H-imidazo[4,5-c]pyridin-5-yl)ethyl)bicyclo[2.2.1]heptane-1-carboxylic acid], the EC50 was found to be 28.1 nM.

Consider `[2H]C([2H])([2H])n1c(C(=O)Nc2cccc(-c3cccc(NC(=O)c4nc5c(n4C([2H])([2H])[2H])CCN(CCC46CCC(C(=O)O)(CC4)C6)C5)c3Cl)c2C)nc2c1CCN(CCC13CCC(COC)(CC1)C3)C2` [Compound I-10, 4-(2-(2-((2-chloro-3′-(5-(2-(4-(methoxymethyl)bicyclo[2.2.1]heptane-1-yl)ethyl)-1-(methyl-d3)-4,5,6,7-tetrahydro-1H-imidazo[4,5-c]pyridine-2-carboxamido)-2′-methyl-[1,1′-biphenyl]-3-yl)carbamoyl)-1-(methyl-d3)-1,4,6,7-tetrahydro-5H-imidazo[4,5-c]pyridin-5-yl)ethyl)bicyclo[2.2.1]heptane-1-carboxylic acid], for which the EC50 stood at 29.9 nM.
